In assay [1] the target is Delta-type opioid receptor (Mus musculus, UniProt P32300). Put plainly: In vitro agonist activity against Opioid receptor delta in mouse vas deferens. It is filed as functional, tissue-based.
Assay [2] can be described thus: In vitro inhibition of [3H]DPDPE binding to Opioid receptor delta.
The nature of assay [3]: In vitro inhibition of [3H]DAMGO binding to Opioid receptor mu.
For another assay, the target named is Mu-type opioid receptor (Cavia porcellus, UniProt P97266). In words: In vitro agonist activity against Opioid receptor mu in guinea pig ileum/longitudinal muscle myenteric plexus. It is filed as functional, tissue-based.
The target of assay [4] is Delta-type opioid receptor (Mus musculus) (UniProt P32300). In words: Percent inhibition against Opioid receptor delta in mouse vas deferens. The format is functional, tissue-based. To be noted: concentration not given here.
Assay [5] has as its target Mu-type opioid receptor (Cavia porcellus) (UniProt P97266). In words: Percent inhibition against Opioid receptor mu in guinea pig ileum/longitudinal muscle myenteric plexus. The format is functional, tissue-based. Particulars: concentration not given here.

Sequence of Delta-type opioid receptor (Mus musculus) (P32300 whole entry): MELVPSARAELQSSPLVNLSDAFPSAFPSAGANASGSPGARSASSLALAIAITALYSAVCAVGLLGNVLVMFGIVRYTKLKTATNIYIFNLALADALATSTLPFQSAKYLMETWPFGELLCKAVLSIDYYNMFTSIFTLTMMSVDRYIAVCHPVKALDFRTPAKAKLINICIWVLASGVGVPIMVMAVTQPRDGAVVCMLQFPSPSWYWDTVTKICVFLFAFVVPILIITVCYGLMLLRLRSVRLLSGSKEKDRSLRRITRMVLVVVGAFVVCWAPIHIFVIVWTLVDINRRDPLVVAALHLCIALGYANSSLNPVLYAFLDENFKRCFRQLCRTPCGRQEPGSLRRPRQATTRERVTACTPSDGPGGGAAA
Sequence of Delta-type opioid receptor (P32300 whole entry): as above
Sequence of Mu-type opioid receptor (Cavia porcellus) (P97266 whole entry): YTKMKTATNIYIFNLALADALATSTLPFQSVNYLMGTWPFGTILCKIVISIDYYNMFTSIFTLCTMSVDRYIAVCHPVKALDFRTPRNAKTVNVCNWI
Sequence of Mu-type opioid receptor (P97266 whole entry): as above

Usually IC50 stands for the concentration that inhibits the measured activity by half. Take `C[C@@H](NC(=O)[C@@H](N)Cc1ccc(O)cc1)C(=O)NCC(=O)N[C@@H](Cc1ccccc1)C(=O)N1CCN(C(=O)[C@H](Cc2ccccc2)NC(=O)CNC(=O)[C@@H](C)N[C@@H](N)Cc2ccc(O)cc2)CC1`: the concentration for half-maximal inhibition (IC50) in assay [1] was 9.3 nM; in assay [2], 0.65 nM; in assay [3], 0.48 nM; on Mu-type opioid receptor, 2.5 nM.
Broadly, the inhibition is the drop in the measured response relative to a control, in per cent. Read a high inhibition as a strong effect. As for `N[C@H](Cc1ccc(O)cc1)C(=O)N[C@H](Cc1ccccc1)C(=O)Nc1ccc(NC(=O)[C@@H](Cc2ccccc2)NC(=O)[C@H](N)Cc2ccc(O)cc2)cc1`, the inhibition in assay [4] is 17%; in assay [5] it was 43%. Further, the IC50 came out at 2400 nM in assay [2] and 8200 nM in assay [3].
On to `C[C@@H](NC(=O)[C@@H](N)Cc1ccc(O)cc1)C(=O)NCC(=O)N[C@@H](Cc1ccccc1)C(=O)NNC(=O)[C@H](Cc1ccccc1)NC(=O)CNC(=O)[C@@H](C)NC(=O)[C@@H](N)Cc1ccc(O)cc1` [BIPHALIN], for which the IC50 was 2.6 nM in assay [2] and 1.4 nM in assay [3].
Consider `N[C@H](Cc1ccc(O)cc1)C(=O)N[C@H](Cc1ccccc1)C(=O)N1CCN(C(=O)[C@@H](Cc2ccccc2)NC(=O)[C@H](N)Cc2ccc(O)cc2)CC1`, for which the inhibition in assay [4] was found to be 8.1%; in assay [5] it was 25.5%. Moreover, the figures for the IC50 in assay [2] and in assay [3] were 400 nM and 2700 nM, respectively.
Take `N[C@H](Cc1ccc(O)cc1)C(=O)N[C@H](Cc1ccccc1)C(=O)Nc1ccccc1NC(=O)[C@@H](Cc1ccccc1)NC(=O)[C@H](N)Cc1ccc(O)cc1`: the inhibition stood at 47% in assay [4] and 61% in assay [5]. Besides, the results for the IC50 in assay [2] and in assay [3] were 640 nM and 3010 nM, respectively.
As to `C[C@@H](NC(=O)[C@@H](N)Cc1ccc(O)cc1)C(=O)NCC(=O)N[C@@H](Cc1ccccc1)C(=O)Nc1ccc(NC(=O)[C@H](Cc2ccccc2)NC(=O)CNC(=O)[C@@H](C)N[C@@H](N)Cc2ccc(O)cc2)cc1`, the concentration for half-maximal inhibition (IC50) in assay [1] amounted to 35.6 nM; in assay [2], 3.17 nM; in assay [3], 1.27 nM; on Mu-type opioid receptor, 40 nM.
`C[C@@H](NC(=O)[C@@H](N)Cc1ccc(O)cc1)C(=O)NCC(=O)N[C@@H](Cc1ccccc1)C(=O)Nc1ccccc1NC(=O)[C@H](Cc1ccccc1)NC(=O)CNC(=O)[C@@H](C)N[C@@H](N)Cc1ccc(O)cc1`: the half-maximal inhibitory concentration (IC50) in assay [1] was 0.72 nM; in assay [2] it was 0.19 nM; in assay [3], 1.93 nM; on Mu-type opioid receptor, 40 nM.

The record behind these values is ChEMBL document CHEMBL1140270, “Synthesis and biological evaluation of new biphalin analogues with non-hydrazine linkers” (Bioorg Med Chem Lett, 2005).
